Values after ≈ are worked out from the molar mass of the structure shown.

For one test, the system named is Staph. aureus 01A005. The test can be described thus: protection against in vivo infection in mice infected with Staph. aureus 01A005 (test procedure of Retsema). As to conditions: subcutaneous or oral administration to mice infected with Staph. aureus 01A005; compared with natural oleandomycin. On the procedure:
The ability of some compounds of the present invention to protect against in vivo infections was determined by subcutaneous or oral administration to mice infected with Staph. aureus 01A005. Using the test procedure of Retsema [J. A. Retsema, et al., Antimicr.

For a further test, the system named is E.coli 51A226. The test is described as follows: in vitro minimum inhibitory concentration (MIC) method of Ericsson and Sherris. The class given is cell-based. As to conditions: Escherichia coli; E.coli 51A226, Gram-negative. From the text: (§1) The oleandomycin compounds of the present invention are effective in inhibiting the growth of microorganisms, especially Gram-positive microorganisms. That is, the high activity against Gram-positive organisms in general shown by these compounds can be contrasted in some respects with the lower activity show against certain especially virulent and well known Gram-negative organisms. The following table illustrates the in vitro antibiotic spectrum of the compound of the instant invention. The tests were run according to the "minimum inhibitory concentration" (MIC) method of Ericsson and Sherris [H. M. Ericsson and J. C. Sherris, Acta. Pathol. Microbiol. Scand. Suppl., 217B, 64 (1971)].

In the next test the test system is Klebsiella pn. 53A009. The test is described as above. The class given is cell-based. As to conditions: Klebsiella pn. 53A009, Gram-negative.
Source text: as §1

The test system of a further test is Neisseriae Sicca 66C001. The description is as above. The class given is cell-based. The conditions noted are these: Neisseriae Sicca 66C001, Gram-negative.
Source text: as §1

The next test deals with Salm.typhm. 58D009. The description is as above. The class given is cell-based. The conditions noted are these: Salm.typhm. 58D009, Gram-negative.
Source text: as §1

Another test relates to Staph.aureus 01A005. Described as above. The class given is cell-based. As to conditions: Staphylococcus aureus; Staph.aureus 01A005, Gram-positive.
Source text: as §1

A further test deals with Staph.aureus 01A400R. The description is as above. The class given is cell-based. As to conditions: Staphylococcus aureus, Gram-positive.
Source text: as §1

Another test has as its system Strep.py 02C203. The test is described as above. The class given is cell-based. As to conditions: Strep.py 02C203, Gram-positive.
Source text: as §1

On to `CO[C@H]1C[C@H](O[C@H]2[C@H](C)[C@@H](O[C@@H]3O[C@H](C)C[C@H](N(C)C)[C@H]3O)[C@@H](C)C[C@@H](CNC(C)=O)C(=O)[C@H](C)[C@@H](O)[C@@H](C)[C@@H](C)OC(=O)[C@@H]2C)O[C@@H](C)[C@@H]1OC(C)=O` [Example 19, 8,8a-Deoxy-8-(N-acetyl)aminomethyl-4"-acetyloleandomycin], for which the protection against infection entry with Staph. aureus 01A005 is reported as “protection against infection which was comparable to natural oleandomycin”.

As usually defined, the MIC is the smallest concentration in the dilution series that meets the test's criterion for growth inhibition. High values mean a need for much substance, low ones inhibition by little substance. Consider `CO[C@H]1C[C@H](O[C@H]2[C@H](C)[C@@H](O[C@@H]3O[C@H](C)C[C@H](N(C)C)[C@H]3OC(C)=O)[C@@H](C)C[C@@H](CO)C(=O)[C@H](C)[C@@H](O)[C@@H](C)[C@@H](C)OC(=O)[C@@H]2C)O[C@@H](C)[C@@H]1O` [Example 2, 8,8a-Deoxy-8-hydroxymethyl-2'-acetyloleandomycin], for which the MIC against E.coli 51A226 was more than 200 µg/mL; against Klebsiella pn. 53A009 it was more than 200 µg/mL; against Neisseriae Sicca 66C001, 0.39 µg/mL (≈ 0.533 µM); against Salm.typhm. 58D009, more than 200 µg/mL; in the test on Staph.aureus 01A005, 6.25 µg/mL (≈ 8.54 µM); against Staph.aureus 01A400R, 12.5 µg/mL (≈ 17.1 µM). 1.56 µg/mL (≈ 2.13 µM) was the least that counted as inhibitory in the test with Strep.py 02C203 (MIC). Also, the protection against infection result with Staph. aureus 01A005 is “protection against infection which was comparable to natural oleandomycin”.

Take `CO[C@H]1C[C@H](O[C@H]2[C@H](C)[C@@H](O[C@@H]3O[C@H](C)C[C@H](N(C)C)[C@H]3O)[C@@H](C)C[C@@H](CCl)C(=O)[C@H](C)[C@@H](O)[C@@H](C)[C@@H](C)OC(=O)[C@@H]2C)O[C@@H](C)[C@@H]1OC(C)=O` [Example 13, 8,8a-Deoxy-8-chloromethyl-4'-acetyloleandomycin]: the MIC is 200 µg/mL (≈ 267 µM) against E.coli 51A226; more than 200 µg/mL in the test with Klebsiella pn. 53A009; not above 0.1 µg/mL with Neisseriae Sicca 66C001; more than 200 µg/mL against Salm.typhm. 58D009; 3.12 µg/mL (≈ 4.16 µM) against Staph.aureus 01A005; 50 µg/mL (≈ 66.6 µM) in the test on Staph.aureus 01A400R. The compound further yielded an MIC in the test with Strep.py 02C203 of 1.56 µg/mL (≈ 2.08 µM). Moreover, the protection against infection entry in the test with Staph. aureus 01A005 is on record as “protection against infection which was comparable to natural oleandomycin”.

Take `CO[C@H]1C[C@H](O[C@H]2[C@H](C)[C@@H](O[C@@H]3O[C@H](C)C[C@H](N(C)C)[C@H]3O)[C@@H](C)C[C@@H](CN=[N+]=[N-])C(=O)[C@H](C)[C@@H](O)[C@@H](C)[C@@H](C)OC(=O)[C@@H]2C)O[C@@H](C)[C@@H]1OC(C)=O` [Example 9, 8,8a-Deoxy8-azidomethyl-4"-acetyloleandomycin]: the MIC is more than 200 µg/mL in the test on E.coli 51A226; more than 200 µg/mL against Klebsiella pn. 53A009; 0.2 µg/mL (≈ 0.264 µM) in the test with Neisseriae Sicca 66C001; more than 200 µg/mL in the test with Salm.typhm. 58D009; 3.1 µg/mL (≈ 4.1 µM) in the test with Staph.aureus 01A005; 12.5 µg/mL (≈ 16.5 µM) in the test on Staph.aureus 01A400R. Further, the MIC against Strep.py 02C203 was 3.1 µg/mL (≈ 4.1 µM). For the same compound, in the test on Staph. aureus 01A005, the protection against infection entry was “protection against infection which was comparable to natural oleandomycin”.

Turning to `CO[C@H]1C[C@H](O[C@H]2[C@H](C)[C@@H](O[C@@H]3O[C@H](C)C[C@H](N(C)C)[C@H]3O)[C@@H](C)C[C@@H](CN)C(=O)[C@H](C)[C@@H](O)[C@@H](C)[C@@H](C)OC(=O)[C@@H]2C)O[C@@H](C)[C@@H]1OC(C)=O` [Example 11, 8,8a-Deoxy-8-aminomethyl-4"-acetyloleandomycin], the MIC is more than 200 µg/mL against E.coli 51A226; more than 200 µg/mL in the test on Klebsiella pn. 53A009; not above 0.1 µg/mL against Neisseriae Sicca 66C001; more than 200 µg/mL with Salm.typhm. 58D009; 6.25 µg/mL (≈ 8.55 µM) in the test with Staph.aureus 01A005; 25 µg/mL (≈ 34.2 µM) in the test on Staph.aureus 01A400R. This compound also gave an MIC against Strep.py 02C203 of 50 µg/mL (≈ 68.4 µM).

As to `CO[C@H]1C[C@H](O[C@H]2[C@H](C)[C@@H](O[C@@H]3O[C@H](C)C[C@H](N(C)C)[C@H]3O)[C@@H](C)C[C@@H](Cn3ccnc3)C(=O)[C@H](C)[C@@H](O)[C@@H](C)[C@@H](C)OC(=O)[C@@H]2C)O[C@@H](C)[C@@H]1OC(C)=O` [Example 24, 8,8a-deoxy-8-(imidazol-1-yl)methyl-4"-acetyloleandomycin], the MIC against E.coli 51A226 is more than 200 µg/mL; in the test with Klebsiella pn. 53A009, more than 200 µg/mL; with Neisseriae Sicca 66C001, not above 0.1 µg/mL; with Salm.typhm. 58D009 it was more than 200 µg/mL; with Staph.aureus 01A005 it was 0.39 µg/mL (≈ 0.499 µM); in the test with Staph.aureus 01A400R it was 6.25 µg/mL (≈ 7.99 µM). In addition, in the test on Staph. aureus 01A005, the protection against infection result is reported as “protection against infection which was comparable to natural oleandomycin”.

As to `CO[C@H]1C[C@H](O[C@H]2[C@H](C)[C@@H](O[C@@H]3O[C@H](C)C[C@H](N(C)C)[C@H]3OC(C)=O)[C@@H](C)C[C@@H](COS(=O)(=O)c3ccc(C)cc3)C(=O)[C@H](C)[C@@H](O)[C@@H](C)[C@@H](C)OC(=O)[C@@H]2C)O[C@@H](C)[C@@H]1O` [Example 5, 8,8a-Deoxy-8-tosyloxymethyl-2'-acetyloleandomycin], the MIC is more than 200 µg/mL in the test with E.coli 51A226; more than 200 µg/mL against Klebsiella pn. 53A009; 3.12 µg/mL (≈ 3.52 µM) with Neisseriae Sicca 66C001; more than 200 µg/mL with Salm.typhm. 58D009; 100 µg/mL (≈ 113 µM) in the test on Staph.aureus 01A005; more than 200 µg/mL in the test on Staph.aureus 01A400R. In addition, in the test on Strep.py 02C203, it took 3.12 µg/mL (≈ 3.52 µM) to inhibit growth (MIC).

Turning to `CO[C@H]1C[C@H](O[C@H]2[C@H](C)[C@@H](O[C@@H]3O[C@H](C)C[C@H](N(C)C)[C@H]3O)[C@@H](C)C[C@@H](CN(C)C)C(=O)[C@H](C)[C@@H](O)[C@@H](C)[C@@H](C)OC(=O)[C@@H]2C)O[C@@H](C)[C@@H]1OC(C)=O` [Example 14, 8,8a-Deoxy-8-dimethylaminomethyl-4"-acetyloleandomycin], the MIC against E.coli 51A226 is more than 200 µg/mL; in the test on Klebsiella pn. 53A009 it was more than 200 µg/mL; in the test with Neisseriae Sicca 66C001, 1.56 µg/mL (≈ 2.06 µM); against Salm.typhm. 58D009, more than 200 µg/mL; in the test with Staph.aureus 01A005 it was 25 µg/mL (≈ 32.9 µM); in the test on Staph.aureus 01A400R, 50 µg/mL (≈ 65.9 µM). Moreover, it took 50 µg/mL (≈ 65.9 µM) to inhibit growth against Strep.py 02C203 (MIC).

The values are drawn from patent US4178436A, “Semi-synthetic oleandomycin derivatives-C8 modifications” (Pfizer Inc., priority 1978, dated 1979).
